According to patent publication US20250214962A1, “PYRIDINONE DERIVATIVES AS SELECTIVE CYTOTOXIC AGENTS AGAINST HIV INFECTED CELLS” (Merck Sharp & Dohme LLC, priority 2019, published 2025):

Experiments:
[1] = test system: infected PBMCs (VSV-G pseudotyped HIV virus); assay: cells; assay type: cell-based, human; conditions: Homo sapiens, PBMC, read-out: SMACK EC50_50% NHS
Viking EC50, 50% NHS = assay type: cell-based; conditions: method not described, read-out: Viking EC50_50% NHS

Row | SMILES | EC50 [1] [µM] | EC50 (Viking EC50, 50% NHS) [µM]
1 | Cc1cc(C)c(Cn2cnc(C(F)(F)C(F)F)c(Oc3cc(Cl)cc(C#N)c3)c2=O)c(=O)[nH]1 [Example 6, 3-chloro-5-((1-((4,6-dimethyl-2-oxo-1,2-dihydropyridin-3-yl)methyl)-6-oxo-4-(1,1,2,2-tetrafluoroethyl)-1,6-dihydropyrimidin-5-yl)oxy)benzonitrile] | 0.263 | 0.0375
2 | Cc1ccc(Cn2cnc(C(F)(F)C(F)F)c(Oc3cc(F)cc(C#N)c3C)c2=O)c(=O)[nH]1 [Example 9] | 0.281 | 0.0157
3 | Cc1c(C#N)cc(C(F)F)cc1Oc1c(C(F)(F)C(F)(F)F)ncn(Cc2cc(F)c[nH]c2=O)c1=O [Example 38, 5-(difluoromethyl)-3-((1-((5-fluoro-2-oxo-1,2-dihydropyridin-3-yl)methyl)-6-oxo-4-(perfluoroethyl)-1,6-dihydropyrimidin-5-yl)oxy)-2-methylbenzonitrile] | 0.191 | 0.0968
4 | Cc1c(C#N)cc(C(F)F)cc1Oc1c(C(F)(F)C(F)F)ncn(Cc2ccc(-c3cn[nH]c3)[nH]c2=O)c1=O [Example 27, 5-(difluoromethyl)-3-((1-((2-hydroxy-6-(1H-pyrazol-4-yl)pyridin-3-yl)methyl)-6-oxo-4-(1,1,2,2-tetrafluoroethyl)-1,6-dihydropyrimidin-5-yl)oxy)-2-methylbenzonitrile] | 0.292 | 0.0772
5 | Cc1cc(C)c(Cn2cnc(C(F)(F)C(F)F)c(Oc3cc(C(F)F)cc(C#N)c3C)c2=O)c(=O)[nH]1 [Example 5, 5-(difluoromethyl)-3-((1-((4,6-dimethyl-2-oxo-1,2-dihydropyridin-3-yl)methyl)-6-oxo-4-(1,1,2,2-tetrafluoroethyl)-1,6-dihydropyrimidin-5-yl)oxy)-2-methylbenzonitrile] | 0.161 | 0.0471
6 | COCc1ccc(Cn2cnc(C(F)(F)C(F)F)c(Oc3cc(Cl)cc(C#N)c3F)c2=O)c(=O)[nH]1 [Example 1, 5-Chloro-2-Fluoro-3-((1-((6-(Methoxymethyl)-2-Oxo-1,2-Dihydropyridin-3-Yl)Methyl)-6-Oxo-4-(1,1,2,2-Tetrafluoroethyl)-1,6-Dihydropyrimidin-5-Yl)Oxy)Benzonitrile] | 0.258 | 0.0295
7 | N#Cc1cc(Cl)cc(Oc2c(C(F)(F)F)ncn(Cc3cc(F)c[nH]c3=O)c2=O)c1Cl [Example 36, 2,5-dichloro-3-((1-((5-fluoro-2-oxo-1,2-dihydropyridin-3-yl)methyl)-6-oxo-4-(trifluoromethyl)-1,6-dihydropyrimidin-5-yl)oxy)benzonitrile] | 0.369 | 0.05
8 | N#Cc1cc(Cl)cc(Oc2c(C(F)(F)F)ncn(Cc3ccc(-c4cn[nH]c4)[nH]c3=O)c2=O)c1 [Example 30, 3-Chloro-5-((6-Oxo-1-((2-Oxo-6-(1H-Pyrazol-4-Yl)-1,2-Dihydropyridin-3-Yl)Methyl)-4-(Trifluoromethyl)-1,6-Dihydropyrimidin-5-Yl)Oxy)Benzonitrile] | 0.415 | 0.0301
9 | Cc1cc(C)c(Cn2cnc(C(F)(F)C(F)F)c(Oc3cc(Br)cc(C#N)c3)c2=O)c(=O)[nH]1 [Example 7, 3-bromo-5-((1-((4,6-dimethyl-2-oxo-1,2-dihydropyridin-3-yl)methyl)-6-oxo-4-(1,1,2,2-tetrafluoroethyl)-1,6-dihydropyrimidin-5-yl)oxy)benzonitrile] | 0.433 | 0.0291
10 | Cc1c(C#N)cc(Cl)cc1Oc1c(C(C)F)ncn(Cc2ccc(-c3cc[nH]n3)[nH]c2=O)c1=O (stereo not drawn) [Example 12, 5-chloro-3-((4-(1-fluoroethyl)-6-oxo-1-((2-oxo-6-(1H-pyrazol-3-yl)-1,2-dihydropyridin-3-yl)methyl)-1,6-dihydropyrimidin-5-yl)oxy)-2-methylbenzonitrile] | 0.374 | 0.127
11 | Cc1c(C#N)cc(Cl)cc1Oc1c(C(F)(F)F)ncn(Cc2ccc(-c3cc[nH]n3)[nH]c2=O)c1=O [Example 13, 5-chloro-2-methyl-3-((6-oxo-1-((2-oxo-6-(1H-pyrazol-3-yl)-1,2-dihydropyridin-3-yl)methyl)-4-(trifluoromethyl)-1,6-dihydropyrimidin-5-yl)oxy)benzonitrile] | 0.295 | 0.343
12 | Cc1c(C#N)cc(C(F)F)cc1Oc1c(C(F)(F)C(F)(F)F)ncn(Cc2ccc[nH]c2=O)c1=O [Example 23, 5-(Difluoromethyl)-2-Methyl-3-((6-Oxo-1-((2-Oxo-1,2-Dihydropyridin-3-Yl)Methyl)-4-(Perfluoroethyl)-1,6-Dihydropyrimidin-5-Yl)Oxy)Benzonitrile] | 0.234 | 0.053
13 | Cc1c(C#N)cc(C(F)F)cc1Oc1c(C(F)(F)C(F)F)ncn(Cc2ccc(C(C)(C)O)[nH]c2=O)c1=O [Example 29, 5-(Difluoromethyl)-3-((1-((6-(2-Hydroxypropan-2-Yl)-2-Oxo-1,2-Dihydropyridin-3-Yl)Methyl)-6-Oxo-4-(1,1,2,2-Tetrafluoroethyl)-1,6-Dihydropyrimidin-5-Yl)Oxy)-2-Methylbenzonitrile] | 0.187 | 0.0298
14 | Cc1ccc(Cn2cnc(C(F)(F)C(F)F)c(Oc3cc(C(F)F)cc(C#N)c3C)c2=O)c(=O)[nH]1 [Example 22, 5-(difluoromethyl)-2-methyl-3-((1-((6-methyl-2-oxo-1,2-dihydropyridin-3-yl)methyl)-6-oxo-4-(1,1,2,2-tetrafluoroethyl)-1,6-dihydropyrimidin-5-yl)oxy)benzonitrile] | 0.131 | 0.0489
15 | N#Cc1cc(Oc2c(C(F)(F)F)ncn(Cc3cc(F)c[nH]c3=O)c2=O)cc(C(F)F)c1 [Example 35] | 0.314 | 0.0156
